pIC50: −log10 of the molar value.
Experiments:
CDK2 (Human) = CDK2 (Human) (UniProt P24941); test: Enzyme Assay
EGFR (human) = EGFR (human) (UniProt P00533)
EGFR (human), sequence (P00533 whole entry, looked up): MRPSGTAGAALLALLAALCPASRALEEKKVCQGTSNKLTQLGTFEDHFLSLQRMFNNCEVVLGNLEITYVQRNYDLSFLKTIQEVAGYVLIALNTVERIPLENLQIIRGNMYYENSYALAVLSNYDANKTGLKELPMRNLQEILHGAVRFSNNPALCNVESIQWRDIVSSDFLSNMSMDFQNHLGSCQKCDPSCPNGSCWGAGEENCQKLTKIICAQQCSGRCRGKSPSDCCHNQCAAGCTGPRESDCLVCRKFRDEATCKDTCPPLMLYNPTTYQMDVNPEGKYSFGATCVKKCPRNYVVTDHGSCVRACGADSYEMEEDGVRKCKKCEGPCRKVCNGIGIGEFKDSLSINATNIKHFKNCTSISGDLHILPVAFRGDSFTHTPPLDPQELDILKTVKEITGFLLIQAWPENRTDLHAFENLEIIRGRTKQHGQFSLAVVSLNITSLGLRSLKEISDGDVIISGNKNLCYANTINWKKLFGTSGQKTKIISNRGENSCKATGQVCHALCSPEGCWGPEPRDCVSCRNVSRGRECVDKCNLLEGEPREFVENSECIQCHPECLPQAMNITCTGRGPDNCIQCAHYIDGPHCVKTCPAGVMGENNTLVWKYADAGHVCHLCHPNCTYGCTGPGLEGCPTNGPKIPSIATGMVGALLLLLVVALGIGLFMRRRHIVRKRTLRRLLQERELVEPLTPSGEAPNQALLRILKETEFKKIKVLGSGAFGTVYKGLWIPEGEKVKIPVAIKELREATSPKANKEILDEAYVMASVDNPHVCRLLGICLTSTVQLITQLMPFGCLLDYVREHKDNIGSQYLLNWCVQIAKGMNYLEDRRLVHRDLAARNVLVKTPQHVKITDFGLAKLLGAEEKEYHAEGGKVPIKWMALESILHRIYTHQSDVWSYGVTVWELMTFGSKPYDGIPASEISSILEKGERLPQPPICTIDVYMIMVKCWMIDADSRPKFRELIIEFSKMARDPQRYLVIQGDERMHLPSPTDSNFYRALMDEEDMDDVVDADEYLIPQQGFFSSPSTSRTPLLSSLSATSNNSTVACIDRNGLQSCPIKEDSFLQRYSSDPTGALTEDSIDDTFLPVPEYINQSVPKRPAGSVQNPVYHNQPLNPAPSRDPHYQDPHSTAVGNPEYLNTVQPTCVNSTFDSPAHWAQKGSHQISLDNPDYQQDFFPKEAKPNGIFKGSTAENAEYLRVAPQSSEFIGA

Row | SMILES | pIC50 (CDK2 (Human)) | pIC50 (EGFR (human))
1 | CC(=O)Nc1ccc2c(c1)C(c1ccccc1Cl)=Nc1c(n[nH]c1C)N2 | 7.42 | 6.14
2 | Cc1[nH]nc2c1N=C(c1ccccc1Cl)c1cc(N)ccc1N2 | 7.06 | 6.00
3 | Cc1[nH]nc2c1N=C(c1ccccc1Cl)c1cc(NS(=O)(=O)N(C)C)ccc1N2 | 7.34 | 
4 | Cc1[nH]nc2c1N=C(c1ccccc1F)c1cc(C(N)=O)ccc1N2 | 7.77 | 
5 | Cc1[nH]nc2c1N=C(c1ccccc1F)c1cc(C#N)ccc1N2 | 7.80 | 4.96
6 | COc1ccc2c(c1)C(c1ccccc1Cl)=Nc1c(n[nH]c1C)N2 | 6.49 | 
7 | Cc1[nH]nc2c1N=C(c1ccccc1Cl)c1cc(NS(C)(=O)=O)ccc1N2 | 7.62 | 
8 | Cc1[nH]nc2c1N=C(c1ccccc1)c1cc(Cl)ccc1N2 | 6.31 | 
9 | Cc1[nH]nc2c1N=C(c1ccccc1F)c1cc(Cl)ccc1N2 | 6.72 | 
10 | Cc1[nH]nc2c1N=C(c1ccccc1Cl)c1cc(Cl)ccc1N2 | 6.36 | 
